Test results as given in article PMC5963591, “Bitopic Binding Mode of an M1 Muscarinic Acetylcholine Receptor Agonist Associated with Adverse Clinical Trial Outcomes” (Molecular Pharmacology, 2018).

Key:
wild-type M1 mAChR = experiment: Agonist bias analysis, IP1 versus ERK1/2 phosphorylation (operational model); format: cell-based, human; settings: reference ligand ACh
Excerpt: (§1) For the analysis, all families of agonist curves at each pathway were globally fitted to the model with the parameters, basal, Em, and n shared between all agonists. For full agonists, the LogKA was constrained to a value of zero, whereas for partial agonists this was directly estimated by the curve fitting procedure; the Log(τ/KA) parameter was estimated as a unique measure of activity for each agonist.

human M1 mAChR [1] = target: T1, human M1 mAChR (Homo sapiens, UniProt P11229); experiment: IP1 accumulation after receptor alkylation with phenoxybenzamine (functional interaction with ACh); settings: phenoxybenzamine 3 μM for 30 minutes, CHO Flp-In cells
T1 sequence (P11229 1-460): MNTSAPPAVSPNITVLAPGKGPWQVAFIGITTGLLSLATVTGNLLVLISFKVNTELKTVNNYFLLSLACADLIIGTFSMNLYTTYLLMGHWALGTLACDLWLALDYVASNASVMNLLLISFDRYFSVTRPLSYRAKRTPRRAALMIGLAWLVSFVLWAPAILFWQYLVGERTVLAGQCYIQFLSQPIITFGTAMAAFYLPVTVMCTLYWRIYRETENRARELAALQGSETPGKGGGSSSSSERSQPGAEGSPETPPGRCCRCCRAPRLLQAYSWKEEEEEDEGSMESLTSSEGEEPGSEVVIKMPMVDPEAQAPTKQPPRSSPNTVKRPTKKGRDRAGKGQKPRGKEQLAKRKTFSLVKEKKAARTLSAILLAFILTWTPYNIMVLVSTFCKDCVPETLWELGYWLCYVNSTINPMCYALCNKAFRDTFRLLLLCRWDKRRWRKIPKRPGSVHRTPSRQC

C57Bl/6J mice = experiment: Contextual fear conditioning, scopolamine-induced deficit; format: in vivo, mouse; settings: for shape of the dose response on learning and memory: escalating i.p. doses with scopolamine […]
Method: C57Bl/6J male mice (aged 8–12 weeks) were acclimatized to the behavioral testing suite at least 2 hours prior to the test. […] Mice were placed in the conditioning chamber (ANY-maze Fear Conditioning System; Stoelting, Dublin, Ireland); after a 2-minute adaptation period, they received three tone/foot shock pairings where the foot shock (unconditioned stimulus; 2 seconds; 0.4 mA) always co-terminated with a tone (conditioned stimulus; 2.8 kH; 85 dB; 30 seconds). The conditioned stimulus–unconditioned stimulus pairings were separated by 1-minute intervals. After the mice completed training, they remained in the conditioning chamber for 1 minute and were then returned to their home cages. The next day, the mice were placed back in the conditioning chamber, and time spent immobile was recorded for 3 minutes to assess context-dependent learning. Data were analyzed using ANY-maze software (Stoelting).

human M1 mAChR [2] = target: T1, human M1 mAChR; experiment: Kinetic [3H]-NMS binding (dissociation) in membranes; set-up: expressed in transfected cells; host or cells: CHO Flp-In; settings: compound 10 μM plus atropine 10 μM
Method: Reactions were terminated by rapid filtration onto GF/B filter paper (Whatman, Maidstone, UK) and three washes with 3 ml ice-cold 0.9% NaCl using a Brandel harvester (M-24TI; Brandel, Fort Lauderdale, FL). Membrane bound radioactivity was determined by liquid scintillation (Ultima Gold; PerkinElmer) counting.

human M1 receptor = target: T2, human M1 receptor (Homo sapiens, UniProt P11229); experiment: ERK1/2 phosphorylation, CHO Flp-In human M1 cells; format: cell-based
T2 construct: expressed in transfected cells; host or cells: CHO Flp-In
T2 sequence (P11229 1-460): T1 sequence (P11229 1-460)
Method: CHO Flp-In cells stably expressing the human M1 receptor were seeded onto transparent 96-well plates at 20,000 cells/well and grown to confluence. Cells were serum starved overnight prior to the experiment. Prior to the stimulations, cells were washed with 100 μl phosphate-buffered saline and then incubated in serum free F12 medium at 37°C. Cells were stimulated with ligands for 5 minutes at 37°C in a final volume of 200 μl. The stimulations were terminated by rapid aspiration and addition of 50 μl lysis buffer supplemented with blocking reagent per the manufacturer’s instructions, followed by gentle agitation at room temperature for 30 minutes. Subsequently, 16 μl of this lysate was transferred to a 384-well white ProxiPlate (PerkinElmer) and incubated with 4 μl premixed antibody solution for 2 hours at room temperature.
as §1

human M1 mAChR [3] = target: T1, human M1 mAChR; experiment: IP-One (IP1) accumulation assay, CHO Flp-In human M1 cells; format: cell-based; set-up: expressed in transfected cells; host or cells: CHO Flp-In
Method: Stimulation of IP accumulation was determined using the Cisbio IP-One Gq assay kit per the manufacturer’s instructions. […] CHO Flp-In cells stably expressing the human M1 mAChR were grown to confluence in T75 cell culture flasks at 37°C. Cells were washed with warm phosphate-buffered saline and detached using phosphate-buffered saline with 0.1 M EDTA. Detached cells were centrifuged at 1000g and the cells were resuspended in stimulation buffer.
All IP-One stimulations were terminated by the addition of 3 μl/well IP1-d2 solution, followed by 3 μl/well anti–IP1-cryptate solution and incubation for 1 hour at room temperature with shaking.
Functional concentration-response curves were fitted according to a four-parameter logistic equation (to determine minimum and maximum asymptotes, LogEC50, and slope; GraphPad Prism 6). […] In the absence of antagonist ([B] = 0), this equation becomes the standard four-parameter logistic equation for fitting agonist concentration-response data.

human M1 mAChR [4] = target: T1, human M1 mAChR; settings: 20 nM [^3H]-GSK1034702
[5] = Mouse pharmacokinetics, unbound plasma and brain concentrations; format: in vivo; settings: mice, 30 minutes after i.p. administration
Method: Pharmacokinetic analyses were conducted as previously described ([Witkin et al., 2017]). Compounds were administered via intraperitoneal injection (in 5% glucose) 30 minutes prior to blood collection. Mice were anesthetized with 3% isoflurane (2 l/min), and blood was collected by cardiac puncture of the left ventricle. Blood was immediately transferred to EDTA tubes and centrifuged at 1000g for 10 minutes at 4°C; the supernatant was collected and frozen. Brains from each mouse were also dissected and snap-frozen on dry ice.
Brain samples were homogenized in three volumes of methanol/water [1:4 (v/v)] by weight. A 25-μl aliquot of each study sample, calibration standard, and control sample was added to a 96-well plate and mixed with 180 μl acetonitrile/methanol [1:1 (v/v)] containing internal standard. The samples were subsequently centrifuged, and the resulting supernatants were diluted 12.5-fold with methanol/water [1:1 (v/v)] prior to analyzing 10-μl aliquots by liquid chromatography–tandem mass spectrometry as previously described ([Bradley et al., 2017]).

patients with AD = test system: patients with AD; set-up: method as in Bodick et al., 1997; settings: ref Bodick et al., 1997; cited from earlier work
murine prion disease = settings: doses that rescued learning and memory, ref Bradley et al., 2017; cited from earlier work
[6] = normalized to reference ligand ACh
[7] = transduction coefficient, wild-type M1 mAChR

CC(=O)OCC[N+](C)(C)C [ACh, acetylcholine]
Log Bias Factor IP1 – ERK1/2 ΔΔLog10(τ/KA) (wild-type M1 mAChR): 0.0 ± 0.1

CC(COc1ccccc1)N(CCCl)Cc1ccccc1 (stereo not drawn) [Phenoxybenzamine, phenoxybenzamine, reference compound]
reduction of the functional human M1 mAChR population (human M1 mAChR [1]): approximately 80%

Cc1ccccc1CN1CCC(N2CCC(n3c(=O)[nH]c4ccccc43)CC2)CC1 [TBPB, 1-[1′-(2-methylbenzyl)-1,4′-bipiperidin-4-yl]-1,3-dihydro-2H-benzimidazol-2-one, reference compound]
shape of the dose response on learning and memory (C57Bl/6J mice): no evidence of a bell-shaped dose response
effect on the [^3H]-NMS dissociation rate (human M1 mAChR [2]): no effect
ERK1/2 Phosphorylation ΔLog10(τ/KA) (human M1 receptor; [6]): −0.3 ± 0.4
ERK1/2 Phosphorylation Log10(τ/KA) (human M1 receptor; [7]): 6.9 ± 0.4
Log Bias Factor IP1 – ERK1/2 ΔΔLog10(τ/KA) (wild-type M1 mAChR): 1.4 ± 0.2
IP1 Emax (human M1 mAChR [3]; CHO Flp-In human M1 cells): 55.2 ± 3.1
IP1 Accumulation ΔLog10(τ/KA) (human M1 mAChR [3]; [6]): 1.1 ± 0.2
IP1 Accumulation Log10(τ/KA) (human M1 mAChR [3]; [7]): 8.2 ± 0.2
displacement of specific [^3H]-GSK1034702 binding (human M1 mAChR [4]): fully displaced
free brain concentration versus dose [5]: could not be increased beyond that observed at 10 mg/kg

CCCCCCOc1nsnc1C1=CCCN(C)C1 [Xanomeline, xanomeline]
effect on cognitive function (patients with AD): significantly improved cognitive function
shape of the dose response on learning and memory (C57Bl/6J mice): bell shaped
adverse responses (murine prion disease): gave adverse responses consistent with the activation of other muscarinic receptor subtypes
Log Bias Factor IP1 – ERK1/2 ΔΔLog10(τ/KA) (wild-type M1 mAChR): 1.1 ± 0.1
free brain concentration versus dose [5]: increase linearly with escalating doses

CN1[C@@H]2C[C@@H](OC(=O)[C@H](CO)c3ccccc3)C[C@H]1[C@@H]1O[C@@H]12 [scopolamine]
effect on contextual fear conditioning learning and memory (C57Bl/6J mice; doses above 1 mg/kg, 30 minutes prior to training): significant reduction in contextual fear conditioning learning and memory
